Counter-ions that a name gives are not always drawn.
What was measured:
sigma receptor = assay: Affinity for the sigma receptor, DTG binding to calf hippocampus membranes; details: 3-di-o-tolyl-guanidine (DTG), Ki calculated from IC50
Procedure: 3.) Affinity for the sigma receptor The sigma receptor binding test is described in detail by E. Weber et al. (1986), Proc. Natl. Acad. Sci. 83, 8784-8788 and M. P. Kavanaugh et al., (1988), Proc. Natl. Acad. Sci. 85, 2844. […] In this binding test, IC50 values which indicate the test substance concentration at which 50% of the binding of the radioligand is suppressed are determined. The inhibition constants Ki are calculated from these taking into account the dissociation constants and the concentration of radioligands.

5-HT1 receptor = assay: Affinity for the 5-HT1 receptor, 3H-serotonin binding to calf hippocampus membranes; details: 3H-serotonin radioligand
Text: 1.) Affinity for the 5-HT1 receptor
The high affinity of the compounds according to the invention for 5-hydroxytryptamine receptors of the sub-type 1 is shown by way of example in Table A. The values given are data which have been determined from receptor binding studies using calf hippocampus membrane preparations. ^3 H-Serotonin was used as the radioactively labelled ligand for this.

5-HT1A receptor = target: T1, 5-HT1A receptor (Bos taurus, UniProt F6Q2H9); assay: Affinity for the 5-HT1A receptor, 3H-ipsapiron binding to calf hippocampus membranes; details: 3H-ipsapiron radioligand
T1 construct: 5-HT1A receptors in calf hippocampus membranes; from tissue; host or cells: calf hippocampus membranes
T1 sequence (F6Q2H9 1-422): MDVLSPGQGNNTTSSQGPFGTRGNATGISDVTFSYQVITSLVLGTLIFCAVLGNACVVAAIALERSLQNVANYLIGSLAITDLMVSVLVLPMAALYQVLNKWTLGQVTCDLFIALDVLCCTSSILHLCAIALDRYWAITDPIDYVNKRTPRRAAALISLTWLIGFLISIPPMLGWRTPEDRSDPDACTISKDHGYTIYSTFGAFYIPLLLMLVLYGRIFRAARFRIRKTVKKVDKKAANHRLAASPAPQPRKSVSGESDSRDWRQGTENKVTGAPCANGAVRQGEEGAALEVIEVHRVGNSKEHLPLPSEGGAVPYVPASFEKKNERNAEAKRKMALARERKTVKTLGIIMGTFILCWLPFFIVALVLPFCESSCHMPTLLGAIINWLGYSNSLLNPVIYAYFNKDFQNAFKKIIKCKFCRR
Procedure: 2.) Affinity for the 5-HT1A receptor [W. U. Dompert et al., Naunyn-Schmeideberg's Arch. Pharmacol. (1985), 328, 467-470]. In this test, the binding of ^3 H-ipsapiron to 5-HT1A receptors in calf hippocampus membranes is measured.

Work on `c1ccc2c(c1)CC[C@@H](CNCC1CCCCCC1)O2` [Example 1, S-(+)-2-(N-Cycloheptylmethyl)aminomethyl-chroman hydrochloride] yielded a Ki (sigma receptor) of 7 nM.
Work on `COc1cccc2c1O[C@@H](CN(C)CC1CCCCCC1)CC2` [Example 13, 2-(R)-2-(N-Cycloheptylmethyl-N-methyl)aminomethyl-8-methoxy-chroman hydrochloride] yielded a Ki (sigma receptor) of 5 nM and a Ki (5-HT1 receptor) of 36 nM.
For `COc1cccc2c1OC(CNCC1CCCCC1)CC2` (stereo not drawn) [Example 17, N-Cyclohexylmethyl-2-aminomethyl-8-methoxychroman hydrochloride], the Ki (sigma receptor) was 8 nM and the Ki (5-HT1A receptor) was 0.7 nM.
Work on `CC(CCCNCC1CCc2ccccc2O1)c1ccccc1` (stereo not drawn) [Example 18] yielded a Ki (5-HT1 receptor) of 3 nM.
`COc1cccc2c1OC(CNCc1ccc(C(F)(F)F)cc1)CC2` (stereo not drawn) [Example 22] showed a Ki (5-HT1 receptor) of 6 nM.
`COc1ccc(CNCC2CCc3cccc(OC)c3O2)cc1` (stereo not drawn) [Example 23] gave a Ki (sigma receptor) of 30 nM and a Ki (5-HT1 receptor) of 5 nM.
Work on `c1ccc2c(c1)CCC(CNCC1CC1)O2` (stereo not drawn) [Example 28] yielded a Ki (5-HT1A receptor) of 2.3 nM.
`c1ccc2c(c1)CCC(CNCC13CC4CC(CC(C4)C1)C3)O2` (stereo not drawn) [Example 31] showed a Ki (sigma receptor) of 16 nM and a Ki (5-HT1A receptor) of 4.2 nM.
Compound `CN(CC1CCN(Cc2ccccc2)CC1)CC1CCc2ccccc2O1` (stereo not drawn) [Example 35] has a Ki (5-HT1A receptor) of 28 nM.
With `c1ccc(CN2CCC(CNCC3CCc4ccccc4O3)CC2)cc1` (stereo not drawn) [Example 36] the Ki (sigma receptor) was 25 nM and the Ki (5-HT1A receptor) was 0.5 nM.
